Reference: patent US8210776B2, “Calcification method using calcifying bacteria” (Soletanche Freyssinet, priority 2007, dated 2012)

Key:
[1] = system: Sporosarcina pasteurii—CIP 66.21 Pasteur; assay: Degree of attachment in sand columns, chicory and/or divalent ion salt added before injection (Example 4); assay type: cell-based; conditions: 10 mM Ca(NO3)2 added to the culture medium; 20° C.
Description: The columns were prepared in accordance with Example 3.
The bacteria (Sporosarcina pasteurii—CIP 66.21 Pasteur) were cultured in a culture medium (1 L of laboratory water) containing 10 g of yeast extract, 3 g of NaCl, 2.4 g of urea, 0.1 g of MgCl2 and 0.0128 g of NiCl2. When the bacteria are at the end of the exponential phase, the following are added to the culture medium: • either a source of calcium (10 mM Ca(NO3)2); • or chicory in a proportion of 4 or 8 g/L; • or a source of calcium (10 mM Ca(NO3)2) and chicory in a proportion of 4 or 8 g/L.
The whole was left to stir for one hour before being injected into the columns.
The injection conditions are identical to those of Example 3. All the experiments were carried out at 20° C.
The cumulative column inlet and outlet OD values are compared and expressed in the form of percentage loss of OD, which represents the degree of attachment of the bacteria in the column. FIG. 5 represents the degrees of attachment of the bacteria stimulated by the addition of chicory, of calcium salt or of both to the culture medium before injection.
The protocol is identical to that of Example 4.1, with the calcium ions (Ca(NO3)2) being replaced with magnesium ions (Mg(NO3)2).

[2] = system: S. pasteurii (CIP 66.21 Pasteur); assay: Screening for sugars that can be assimilated, API strips (API 20 E and API 50CH); assay type: cell-based, Sporosarcina pasteurii; conditions: API strip analysis
Text: The first step was to carry out a screening of the various sugars that exist, in order to identify that or those which is (are) assimilable and which stimulate EPS synthesis in Sporosarcina pasteurii, preferably without inhibiting urease synthesis.
For this, two types of API strips were used: API 20 E and API 50CH. These tests are in the form of microtubes containing dehydrated substrates and which are inoculated with a bacterial suspension.

Sporosarcina pasteurii = assay: Culture with inulin/chicory replacing part of the yeast extract: attachment to glassware, growth, enzymatic activity; assay type: cell-based
Text: In order to determine the amount of inulin necessary in order to act on the synthesis of urease and on the production of EPS in Sporosarcina pasteurii, a part of the nitrogenous carbon source (yeast extract) was replaced with chicory.

[3] = system: Sporosarcina pasteurri—CIP 66.21 Pasteur; assay: Degree of attachment of bacteria to Fontainebleau sand columns, chicory in the culture medium (Example 3); assay type: cell-based, Sporosarcina pasteurii; conditions: media with versus without chicory
Description: The chicory used is powdered extract of freeze-dried chicory, derived from the root of Cichorium intibus and sold under the trade name “Chicorée soluble Leroux”. For this, two tests were carried out in parallel on columns:
The columns were made up of a PVC tube 63 mm in diameter and 200 mm in height, positioned between two PVC bases. One centimeter of filter sand was placed at the two ends and the whole of the column was made up with Fontainebleau sand tamped down under water by tapping. The Fontainebleau sand is the NE34-grade sand from SIFRACO. The injections were carried out from top to bottom. […]
Monitoring of the OD at the column outlet makes it possible to know the degree of attachment of the bacteria to the Fontainebleau sand. A calibration OD measurement was carried out beforehand on each of the media from which the bacteria were extracted in order to be free of differences in reading related to the medium itself. […]
Since the column porosity volume is 250 mL, the detection of the first bacteria at the column outlet is carried out after having injected 250 mL of culture medium. The graphic representation of the cumulative OD at the column inlet and at the column outlet makes it possible to readily visualize the degree of attachment of the bacteria to the granular substrate. […] The outlet ODs are also measured every minute. […]

| Compound | Degree of attachment (%) [1] | carbon source that can be assimilated by Sporosarcina pasteurii [2] | adhesion of the bacteria to the laboratory glassware through the production of EPS (Sporosarcina pasteurii) | growth of the bacteria (Sporosarcina pasteurii) | bacterial growth (inlet OD) [3] |
| --- | --- | --- | --- | --- | --- |
| O=[N+]([O-])[O-].O=[N+]([O-])[O-].[Ca+2] [Ca(NO3)2] | 49.5% |  |  |  |  |
| Inulin |  | can be assimilated | demonstrated adhesion | more rapid | greater |
